# Measurements published in patent US20040007689A1, “Process for controlling the hydrate mix of a compound” (Pfizer Inc., priority 2002, published 2004).
# Experiments:
# [1] = Chemical and thermal stability of DSFF hydration forms and hydrate mixes; format: physicochemical; details: for stability of hydration form (chemical / thermal): hydration forms of DSFF, solid state
# [2] = Water content of freeze-dried DSFF product; format: physicochemical; details: DSFF subjected to a typical freeze-drying process
Compound,stability of hydration form (chemical / thermal) [1],"stability of product of typical freeze-drying process ([1]; DSFF after typical freeze-drying with secondary drying, water content about 1.2% w/w (below monohydrate stoichiometry))",water content of product of typical freeze-drying process [2]
"O.O.O.O=P([O-])([O-])OC(Cn1cncn1)(Cn1cncn1)c1ccc(F)cc1F.[Na+].[Na+] [trihydrate, DSFF Trihydrate]",chemically and thermally stable,–,–
"O.O.O.O.O.O.O=P([O-])([O-])OC(Cn1cncn1)(Cn1cncn1)c1ccc(F)cc1F.[Na+].[Na+] [hexahydrate, DSFF Hexahydrate]",chemically and thermally stable,–,–
"O=P([O-])([O-])OC(Cn1cncn1)(Cn1cncn1)c1ccc(F)cc1F.[Na+].[Na+] [DSFF, disodium salt of fosfluconazole]",–,chemically unstable and degrades,about 1.2 % w/w
